# Assay results as given in PubChem BioAssay AID1259371 (The Scripps Research Institute Molecular Screening Center, 2018).
# pIC50: −log10 of the molar value. The source made the active and inactive calls. No rule for the calls is given here.
# Target: Microphthalmia-associated transcription factor (Homo sapiens) (UniProt O75030)
# Assay: MITF inhibitors, potency by titration, dose response, biochemical, AlphaScreen, human (AID 1259371)
# Conditions: AlphaScreen biochemical MITF assay, signal inhibition
# Chain of Microphthalmia-associated transcription factor (Homo sapiens) (O75030 whole entry, looked up): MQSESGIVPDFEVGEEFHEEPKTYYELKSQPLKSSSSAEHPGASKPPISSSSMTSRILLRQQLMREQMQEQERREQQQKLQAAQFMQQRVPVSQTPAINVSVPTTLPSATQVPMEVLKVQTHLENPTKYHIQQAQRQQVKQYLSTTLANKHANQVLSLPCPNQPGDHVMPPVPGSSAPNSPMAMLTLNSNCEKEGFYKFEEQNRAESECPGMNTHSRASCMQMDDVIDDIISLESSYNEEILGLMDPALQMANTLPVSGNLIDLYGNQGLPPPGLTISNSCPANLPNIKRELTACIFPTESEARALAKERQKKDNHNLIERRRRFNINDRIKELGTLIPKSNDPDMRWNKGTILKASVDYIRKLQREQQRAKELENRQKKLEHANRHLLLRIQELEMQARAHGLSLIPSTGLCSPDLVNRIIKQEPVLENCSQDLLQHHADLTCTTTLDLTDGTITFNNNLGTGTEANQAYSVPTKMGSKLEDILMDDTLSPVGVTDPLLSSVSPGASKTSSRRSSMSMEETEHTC
SMILES,IC50,pIC50
CC1=C(C#N)C(c2cc3c(cc2[N+](=O)[O-])OCO3)C2=C(CCCC2=O)N1 (configuration not stated),inactive,–
O=C(/C=C/c1ccco1)ON1C(=O)c2ccccc2C1=O,> 6.48 µM (inactive),–
O=C(Nc1ccc(N2CCOCC2)cc1)c1ccc2nc(Nc3ccccn3)sc2c1,–,6.27
CCOc1cc(-c2ccc(I)o2)cc(=O)c2c(C)oc(C)c12,–,8.59
O=C(O)c1cc(S(=O)(=O)Nc2ccncc2)ccc1O,inactive,–
O=C(NC1CCCCC1)N1CCN2C(=O)[C@H]3CCCN3C(=O)[C@H]2C1,–,6.33
Cc1cc2c(c(=O)[nH]1)C(=O)O/C2=C\c1ccc(C)o1,–,6.48
CN(CCC#N)C(=O)COC(=O)c1c2c(nc3ccccc13)/C(=C/c1ccco1)CC2,inactive,–
O=C(Nc1ccc(-c2ccncc2)c(C(F)(F)F)c1)C1COc2ccccc2O1 (configuration not stated),inactive,–
N[C@@H](C(=O)N[C@@H]1C(=O)N2C(C(=O)O)=C(CSC3CNNN3)CS[C@H]12)c1ccc(O)cc1 (some centres not stated) (tested in a mixture with another compound),–,6.49
COc1ccc2c(c1)CC(C(=O)Nc1ccc(-c3cn[nH]c3)cc1C(=O)N(C)OC)CO2 (configuration not stated),inactive,–
Cc1ccc(-c2nnc3s/c(=C\c4ccco4)c(=O)n23)cc1,inactive,–
O=C(NCCO)c1cccc(-c2cccs2)c1,inactive,–
O=C(OC1CCOC1=O)c1cc(-c2ccco2)nc2ccccc12 (configuration not stated),–,6.47
O=C(c1cccc(F)c1)N1CCN(Cc2ccncc2)CC1,> 5.66 µM (inactive),–
O=Cc1cccn1-c1ccc(C(=O)O)cc1,inactive,–
c1ccc(-c2ccc(OCCCCn3cncn3)cc2)cc1,inactive,–
O=C(O)c1cccc(-n2cccc2/C=C\[N+](=O)[O-])c1,–,6.57
O=C(OCCCC(=O)N1CCOCC1)c1cc(-c2ccco2)nc2ccccc12,inactive,–
O=C(/C=C/c1ccco1)NCC(=O)N/N=C/c1ccc(C(=O)O)cc1,inactive,–
O=C(NCc1ccccc1)N1CCN2C(=O)[C@@H]3CSCN3C(=O)[C@H]2C1,inactive,–

SMILES,IC50,pIC50
O=[N+]([O-])c1c(Br)ccc2c1no[n+]2[O-],inactive,–
CCOC1=CC(c2ccc3c(c2)OCO3)CC(=O)c2c(C)oc(C)c21 (configuration not stated),> 6.48 µM (inactive),–
CCN(CC)CC(=O)Nc1ccc(OC)cc1,> 6.48 µM (inactive),–
COC(=O)CSc1nnc(-c2cnccn2)n1C,> 6.48 µM (inactive),–
Brc1c(OCCN2CCNCC2)ccc2ccccc12,inactive,–
COc1ccc2c(c1)CC(C(=O)Nc1ccc(-c3cn[nH]c3)cc1OCC(N)=O)CO2 (configuration not stated),inactive,–
O=C(NNC(=O)c1cc(-c2ccco2)nc2ccccc12)NC1CCCCC1,–,6.90
CN1CC[C@H](Oc2cc(-c3cn[nH]c3)ccc2NC(=O)OCc2ccccc2)C1,inactive,–
CCC(C)NCCOc1cccc(Br)c1 (configuration not stated),> 6.48 µM (inactive),–
COc1cccc(COC(=O)Nc2ccc(-c3cn[nH]c3)cc2N(C)CCN(C)C)c1,inactive,–
COc1ccc2c3c(cccc13)C(=O)N(C)C2=O,inactive,–
O=C(O)c1cc(NN=C2CCCC2)ccc1Cl,–,6.39
O=C(Nc1ccc(N2CCOCC2)cc1)c1ccc2nc(-c3cccs3)sc2c1,inactive,–
O=C1NC(=S)N/C1=C\c1ccc([N+](=O)[O-])o1,–,6.62
O=C(O)c1ccccc1-c1ccc(/C=C/[N+](=O)[O-])o1,–,6.34
C=CC1=C(C)C2=Cc3c(C=C)c(C)c4[n]3[Sn+2][n]3c(c(C)c(CCC(=O)O)c3=CC3=NC(=C4)C(C)=C3CCC(=O)O)=CC1=N2,inactive,–
COc1ccc(CN2CCN(Cc3cccc(Cl)c3)CC2)cc1Br,inactive,–
O=C1NC(=O)/C(=C\c2ccc(O)cc2O)S1,inactive,–
CC(Oc1ccc(O)cc1)(P(=O)(O)O)P(=O)(O)O,–,7.07
O=C(/C=C/c1ccco1)NCCCCNC(=O)/C=C/c1ccco1,–,6.74
C/C(=N\Nc1ccc(S(=O)(=O)O)cc1)c1ccc([N+](=O)[O-])o1,> 2.16 µM (inactive),–
